The record followed here is ChEMBL document CHEMBL1201862, “PubChem BioAssay data set” (2004).

Some test systems named below: SF-539; PC-3; EKVX; SK-MEL-5; HOP-62; CCRF-CEM; LOX IMVI; SNB-19; BT-549; NCI-H460; ACHN; DU-145; MDA-MB-231; SF-268; A498; A549; SK-OV-3; RPMI-8226; KM12; MDA-MB-435.
What all share (experiment): DTP human tumour cell line panel, 48 h

SMILES strings stand for the structures.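 Exposure lasted 48 hours, with cells grown in 96-well plates and compounds tested at five concentrations. The concentration for 50% growth inhibition is given as GI50.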 Active and inactive are the calls of the source. No stated cut-off is given here; in the data, active = GI50 up to about 1.1 µM and inactive = higher. Bounds are passed on as bounds.

By GI50 is commonly meant the concentration that inhibits growth by half. As to `CNc1ccc(Cl)cc1S(=O)(=O)c1ccccc1[N+](=O)[O-]`, the GI50 with SF-539 was > 100 µM (inactive); in the test with PC-3 it was > 100 µM (inactive); in the test on EKVX it was > 100 µM (inactive); with SK-MEL-5 it was 46.7 µM (inactive); in the test on HOP-62, > 100 µM (inactive); in the test with CCRF-CEM it was > 100 µM (inactive). Moreover, the GI50 in the test with LOX IMVI, in the test on SNB-19, in the test with BT-549, with NCI-H460, with ACHN and in the test with DU-145 was > 100 µM (inactive) in each case. For the same compound, the GI50 in the test on MDA-MB-231, in the test with SF-268, in the test on A498, with A549, in the test with SK-OV-3 and in the test with RPMI-8226 was > 100 µM (inactive) in each case.

Regarding `O=[N+]([O-])c1ccc(/C=N/n2c(S)nnc2CCc2nnc(S)n2/N=C/c2ccc([N+](=O)[O-])o2)o1`, the GI50 is 41.5 µM (inactive) with SF-539; 82.6 µM (inactive) in the test on PC-3; > 100 µM (inactive) in the test with EKVX; 17.3 µM (inactive) in the test on SK-MEL-5; 24 µM (inactive) with HOP-62; 20 µM (inactive) with CCRF-CEM. Also, the GI50 in the test with LOX IMVI is 20.4 µM (inactive); in the test on NCI-H460 it was 84.5 µM (inactive); in the test with ACHN it was 23.1 µM (inactive); in the test with DU-145, 16.2 µM (inactive); with MDA-MB-231 it was 24.7 µM (inactive); in the test on SF-268 it was 22.3 µM (inactive). In addition, the GI50 was > 100 µM (inactive) in the test with A498; 22.8 µM (inactive) in the test with KM12; 17.6 µM (inactive) with MDA-MB-435; > 100 µM (inactive) in the test on SK-OV-3; 29.4 µM (inactive) in the test with RPMI-8226.

Consider `O=c1[nH]c2ccc(Cl)cc2c2oc(-c3ccccc3)nc12`, for which the GI50 in the test on SF-539 is 29.3 µM (inactive); in the test with PC-3 it was 29.9 µM (inactive); with EKVX it was 30.5 µM (inactive); in the test with SK-MEL-5 it was 25.9 µM (inactive); with HOP-62, 20.7 µM (inactive); in the test on CCRF-CEM it was 45.5 µM (inactive). Moreover, the GI50 in the test on LOX IMVI is 32.5 µM (inactive); in the test on SNB-19, 19.8 µM (inactive); in the test with BT-549, > 100 µM (inactive); in the test with NCI-H460 it was 20 µM (inactive); with ACHN, 24.5 µM (inactive); with MDA-MB-231 it was 19.3 µM (inactive). For the same compound, the GI50 is 36 µM (inactive) in the test with SF-268; 21.3 µM (inactive) in the test on A498; 40.8 µM (inactive) in the test on KM12; 22.1 µM (inactive) in the test with A549; 51.6 µM (inactive) in the test on MDA-MB-435; 24.2 µM (inactive) with SK-OV-3. The GI50 with RPMI-8226 was 26 µM (inactive).

With `Cc1ccc(-c2c(C#N)c(-c3ccc(C)cc3)n(NS(=O)(=O)c3ccccc3)c(=O)c2C#N)cc1`, the GI50 is 21.2 µM (inactive) in the test on SF-539; 28.9 µM (inactive) with PC-3; 56.6 µM (inactive) in the test with EKVX; 16 µM (inactive) in the test on SK-MEL-5; 49.2 µM (inactive) in the test with HOP-62; 24.4 µM (inactive) in the test on CCRF-CEM. The GI50 with LOX IMVI is 35 µM (inactive); in the test on SNB-19, 42.1 µM (inactive); with BT-549, 25.4 µM (inactive); in the test on NCI-H460, 40.9 µM (inactive); in the test on ACHN, 37.5 µM (inactive); with MDA-MB-231, > 100 µM (inactive). In addition, the GI50 is > 100 µM (inactive) with SF-268; 51.2 µM (inactive) in the test with A498; 56.5 µM (inactive) in the test on KM12; 41.2 µM (inactive) with A549; 61.1 µM (inactive) in the test on MDA-MB-435; 53.8 µM (inactive) with SK-OV-3. In addition, the GI50 with RPMI-8226 was 14.7 µM (inactive).

Consider `O=C(CC(=O)n1nc(-c2ccccc2)c(/N=N/c2ccccc2C(=O)O)c1-c1ccccc1)Nc1ccc(Cl)cc1`, for which the GI50 in the test on PC-3 is 27.5 µM (inactive); with EKVX, 30.7 µM (inactive); in the test on SK-MEL-5 it was 42 µM (inactive); in the test with HOP-62, 19.6 µM (inactive); in the test with SNB-19, 21.7 µM (inactive); with BT-549, 24.7 µM (inactive). Moreover, the GI50 in the test with NCI-H460 was 19.2 µM (inactive); with ACHN it was 33.5 µM (inactive); with MDA-MB-231, 33.3 µM (inactive); in the test on KM12, > 100 µM (inactive); with A549, 34.1 µM (inactive); with RPMI-8226, 20.4 µM (inactive).

Regarding `Clc1cc(N/N=C(/c2ccccc2)c2ncccn2)ncn1`, the GI50 in the test with SF-539 was 21.9 µM (inactive); in the test on PC-3, 32.7 µM (inactive); in the test with EKVX it was 17 µM (inactive); in the test with SK-MEL-5 it was 25.8 µM (inactive); with HOP-62, 26.8 µM (inactive); in the test on CCRF-CEM it was 4.53 µM (inactive). Further, the GI50 is 60.7 µM (inactive) in the test on SNB-19; 38.5 µM (inactive) with BT-549; 19.3 µM (inactive) in the test with NCI-H460; 4.78 µM (inactive) in the test on ACHN; 39.2 µM (inactive) in the test with DU-145; 20.2 µM (inactive) with MDA-MB-231. The GI50 with SF-268 is 34 µM (inactive); in the test on KM12 it was 43 µM (inactive); in the test on A549, 26 µM (inactive); in the test with MDA-MB-435, 48.3 µM (inactive); in the test with SK-OV-3, 19.1 µM (inactive); in the test on RPMI-8226 it was 16.5 µM (inactive).

Regarding `CC[N+](C)(CC)CCNC(=O)C(O)(c1ccccc1)c1ccccc1`, the GI50 in the test with SF-539, with PC-3, with EKVX, with SK-MEL-5, in the test on HOP-62 and with CCRF-CEM was > 100 µM (inactive) each time. The 50% growth inhibitory concentration (GI50) is 0.2 µM (active) with LOX IMVI; > 100 µM (inactive) in the test on SNB-19; > 100 µM (inactive) in the test on BT-549; > 100 µM (inactive) in the test with NCI-H460; > 100 µM (inactive) with ACHN; > 100 µM (inactive) in the test on DU-145. Further, the GI50 with SF-268 was > 100 µM (inactive); in the test on KM12, 72.9 µM (inactive); in the test with A549, > 100 µM (inactive); in the test on SK-OV-3, > 100 µM (inactive); in the test on RPMI-8226, > 100 µM (inactive).

With `COCOc1cc(OC)ccc1C/C(=N/O)C(=O)OC`, the GI50 in the test on SF-539, in the test on PC-3, in the test on EKVX, with SK-MEL-5, with HOP-62 and with CCRF-CEM was > 100 µM (inactive) throughout. For the same compound, the GI50 in the test with LOX IMVI, in the test with SNB-19, in the test with BT-549, in the test on NCI-H460, in the test on ACHN and in the test with DU-145 was > 100 µM (inactive) each time. The GI50 in the test with MDA-MB-231, in the test on SF-268, in the test on KM12, in the test on A549, in the test on MDA-MB-435 and in the test on SK-OV-3 was > 100 µM (inactive) throughout.

Turning to `CCOC(=O)CCC(NC(=O)C(CCC(=O)OCC)NC(=O)C(Cc1ccc([N+](=O)[O-])cc1)NC(C)=O)C(=O)NNC(=O)OC(C)(C)C` (stereo unspecified), the GI50 in the test on PC-3, with EKVX, with SK-MEL-5, with HOP-62, with SNB-19 and in the test on BT-549 was > 100 µM (inactive) throughout. In addition, the GI50 in the test on NCI-H460, with ACHN, in the test on MDA-MB-231, with A498, with KM12 and with A549 was > 100 µM (inactive) throughout. In addition, the GI50 in the test on RPMI-8226 is > 100 µM (inactive).

As for `NC1CC(N)c2c(Br)sc(Br)c21` (stereo unspecified), the GI50 in the test on SF-539 is > 100 µM (inactive); with EKVX, > 100 µM (inactive); in the test on SK-MEL-5, > 100 µM (inactive); with HOP-62 it was 86.1 µM (inactive); in the test with CCRF-CEM, > 100 µM (inactive); in the test on LOX IMVI, 58.1 µM (inactive). Besides, the GI50 is > 100 µM (inactive) in the test with BT-549; > 100 µM (inactive) in the test with NCI-H460; > 100 µM (inactive) in the test with ACHN; > 100 µM (inactive) in the test on DU-145; > 100 µM (inactive) in the test on MDA-MB-231; 67.3 µM (inactive) with SF-268. Further, the GI50 was > 100 µM (inactive) in the test with A498; > 100 µM (inactive) with KM12; 97.7 µM (inactive) in the test with A549; > 100 µM (inactive) with MDA-MB-435; > 100 µM (inactive) with SK-OV-3.

Regarding `O=C1Nc2ccccc2C(=O)/C1=C/NC(=S)NCc1ccccc1`, the GI50 with SF-539, with PC-3, in the test on EKVX, in the test on SK-MEL-5, with HOP-62 and in the test on LOX IMVI was > 100 µM (inactive) throughout. Moreover, the GI50 with SNB-19, in the test with BT-549, in the test with ACHN, in the test on DU-145, with MDA-MB-231 and in the test with KM12 was > 100 µM (inactive) in each case. The GI50 in the test on A549 was > 100 µM (inactive); in the test on MDA-MB-435, 98.2 µM (inactive); with SK-OV-3, > 100 µM (inactive).

Consider `CC(=O)Oc1ccc2c(C)cc(=O)oc2c1OC(C)=O`, for which the GI50 is > 100 µM (inactive) with SF-539; 34.1 µM (inactive) in the test with PC-3; 48 µM (inactive) in the test on EKVX; 37.8 µM (inactive) in the test on SK-MEL-5; 46.5 µM (inactive) in the test on HOP-62; 5.4 µM (inactive) in the test with CCRF-CEM. Further, the GI50 was 22.2 µM (inactive) in the test with LOX IMVI; 41.3 µM (inactive) in the test with SNB-19; 29.1 µM (inactive) in the test with ACHN; 28.3 µM (inactive) in the test with DU-145; 48.9 µM (inactive) in the test with MDA-MB-231; 25.3 µM (inactive) in the test with SF-268. The GI50 was 37.7 µM (inactive) with A498; 44 µM (inactive) with KM12; 38.4 µM (inactive) in the test with A549; 63.4 µM (inactive) in the test on MDA-MB-435; > 100 µM (inactive) with SK-OV-3; 24.5 µM (inactive) in the test on RPMI-8226.
